{"source": "patent US6824770B1", "about": "“Adenovirus gene expression system” (Cornell Research Foundation, Inc., priority 1993, dated 2004)", "key": {"[1]": {"biological_target": "T1, TRH-R (Mus musculus, UniProt P21761)", "T1 construct": "expressed in transfected cells; host or cells: Infected with AdCMVmTRHR or transfected with pAdCMVmTRHR: HeLa, GHY, AtT-20, C6, CV1, COS-1 and KB cells", "type": "cell-based"}, "[2]": {"biological_target": "T2, mouse TRH-R (Mus musculus, UniProt P21761)", "T2 construct": "expressed in transfected cells; host or cells: Infected with AdCMVmTRHR or transfected with pAdCMVmTRHR: HeLa, GHY, AtT-20, C6, CV1, COS-1 and KB cells", "T2 sequence (P21761 1-393)": "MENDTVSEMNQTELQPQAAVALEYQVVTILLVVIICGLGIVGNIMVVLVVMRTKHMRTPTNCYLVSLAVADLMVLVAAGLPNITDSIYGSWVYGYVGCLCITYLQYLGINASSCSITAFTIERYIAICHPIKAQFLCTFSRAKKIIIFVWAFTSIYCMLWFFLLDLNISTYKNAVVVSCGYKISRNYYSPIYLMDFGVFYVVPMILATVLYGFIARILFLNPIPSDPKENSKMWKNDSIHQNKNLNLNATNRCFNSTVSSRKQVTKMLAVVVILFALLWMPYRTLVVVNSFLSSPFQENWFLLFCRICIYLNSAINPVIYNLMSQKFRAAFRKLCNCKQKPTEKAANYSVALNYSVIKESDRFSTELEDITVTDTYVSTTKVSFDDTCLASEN", "test": "[3H]methylTRH binding to intact AdCMVmTRHR-infected cells", "settings": "TRH-Rs expressed on cells after infection with AdCMVmTRHR; data not shown; read-out: dissociation constant for methylTRH binding", "protocol": "(§1) Cells were seeded in wells (3.8 cm^2) pretreated with poly-L-lysine and were incubated in medium supplemented with serum in a humidified atmosphere of 5% CO2. After a minimum of 4 hours, the medium was aspirated and replaced with 0.3 ml of medium without serum, AdCMVmTRHR (300 particles/cell) was added and the cells were incubated at 37° C. After 1 hour, 0.7 to 1.0 ml medium containing serum was added and the incubation continued for 3 to 72 hours. Infection with AdCMVmTRHR was performed in an identical manner for all cell types except that the incubation mediums were different. The mediums were: Dulbecco's modified Eagle's medium supplemented with 5% Nu-Serum for human cervical cancer HeLa cells, monkey kidney Cos-1 and CV-1 cells, and rat glioma C6 cells; Ham's F-10 medium with 15% horse serum and 2.5% fetal bovine serum for rat pituitary tumor GHY cells; Delbecco's modified Eagle's medium with 10% Nu-Serum for mouse pituitary tumor AtT-20 cells; and modified Eagle's medium with 10% fetal bovine serum for human epidermoid KB cells. None of these cell lines express TRH-Rs. Cells were studied 16 to 24 hours after infection with 300 AdCMVmTRHR particles per cell which yielded maximal TRH-R expression. […]"}, "[3]": {"biological_target": "T1, TRH-R", "test": "Internalization of TRH-Rs (acid-resistant specifically bound [3H]methylTRH)", "type": "cell-based", "settings": "methylTRH-bound receptors", "protocol": "Cells were seeded in wells (3.8 cm^2) pretreated with poly-L-lysine and were incubated in medium supplemented with serum in a humidified atmosphere of 5% CO2. After a minimum of 4 hours, the medium was aspirated and replaced with 0.3 ml of medium without serum, AdCMVmTRHR (300 particles/cell) was added and the cells were incubated at 37° C. After 1 hour, 0.7 to 1.0 ml medium containing serum was added and the incubation continued for 3 to 72 hours. Infection with AdCMVmTRHR was performed in an identical manner for all cell types except that the incubation mediums were different. The mediums were: Dulbecco's modified Eagle's medium supplemented with 5% Nu-Serum for human cervical cancer HeLa cells, monkey kidney Cos-1 and CV-1 cells, and rat glioma C6 cells; Ham's F-10 medium with 15% horse serum and 2.5% fetal bovine serum for rat pituitary tumor GHY cells; Delbecco's modified Eagle's medium with 10% Nu-Serum for mouse pituitary tumor AtT-20 cells; and modified Eagle's medium with 10% fetal bovine serum for human epidermoid KB cells. None of these cell lines express TRH-Rs. Cells were studied 16 to 24 hours after infection with 300 AdCMVmTRHR particles per cell which yielded maximal TRH-R expression.\nInternalization was measured as specifically bound [^3H]methylTRH that was resistant to acid wash (Hinkle et al., 1982, J.Biol. Chem., vol. 257, pp. 5462-5470; and Nussenzveig et al., 1993, J.Biol. Chem., vol. 268, pp. 2389-2392, which disclosures are hereby incorporated by reference). Specific acid resistant binding was calculated by subtracting the nonspecifically bound from the [^3H]methylTRH remaining after acid/salt elution."}, "[4]": {"biological_target": "T1, TRH-R", "test": "methylTRH stimulation of [3H]IP formation (TRH response)", "type": "cell-based", "settings": "uninfected HeLa, GHY, AtT, C6, CV1 and COS-1 cells", "protocol": "as §1, with “TRH-Rs.” for “TRH-Rs. Cells were studied 16 to 24 hours after infection with 300 AdCMVmTRHR particles per cell which yielded maximal TRH-R expression.”\nInfected or transfected cells were labelled for 24 hours with [^3H]myo-inositol, stimulated with TRH or methylTRH in a balanced salt solution containing 10 mM LiCl and [^3H]IPs were measured as described by Imai et al., 1987, Methods. […]"}}, "note": "Where two headings read alike, the source gives them in different places.", "data": [{"smiles": "CCCCCCCCCCCCCC(=O)O[C@@H]1[C@@H](C)[C@@]2(O)[C@@H](C=C(CO)C[C@]3(O)C(=O)C(C)=C[C@@H]23)[C@@H]2C(C)(C)[C@]12OC(C)=O", "note": "[PMA]", "values": [{"measurement": "PMA-induced inhibition of the TRH response", "setting": "[1]; AdCMVmTRHR-infected AtT-20 cells, 0.1 μM PMA 60 minutes prior to TRH", "result": "37±4.0", "unit": "%"}, {"measurement": "PMA-induced inhibition of the TRH response", "setting": "[1]; AdCMVmTRHR-infected COS-1 cells, 0.1 μM PMA 60 minutes prior to TRH", "result": "37±8.0", "unit": "%"}, {"measurement": "PMA-induced inhibition of the TRH response", "setting": "[1]; AdCMVmTRHR-infected GHY cells, 0.1 μM PMA added 60 minutes prior to TRH", "result": "25±4.6", "unit": "%"}, {"measurement": "PMA-induced inhibition of the TRH response", "setting": "[1]; AdCMVmTRHR-infected KB cells, 0.1 μM PMA 60 minutes prior to TRH", "result": "0±10", "unit": "%"}]}, {"smiles": "NC(=O)[C@@H]1CCCN1C(=O)[C@H](Cc1cnc[nH]1)NC(=O)[C@@H]1CCC(=O)N1", "note": "[TRH, thyrotropin-releasing hormone]", "values": [{"measurement": "TRH-induced desensitization: decrease of rate of IP formation compared to control", "setting": "[1]; AdCMVmTRHR-infected AtT-20 cells, 60 minutes 1 μM TRH", "result": "41±4.7", "unit": "%"}, {"measurement": "TRH-induced desensitization", "setting": "[1]; AdCMVmTRHR-infected COS-1 cells, 60 minutes 1 μM TRH", "result": "did not desensitize"}, {"measurement": "TRH-induced desensitization: decrease of the response to TRH", "setting": "[1]; AdCMVmTRHR-infected GHY cells, after 60 minutes of stimulation by 1 μM TRH", "result": "49±5.2", "unit": "%"}, {"measurement": "TRH-induced desensitization", "setting": "[1]; AdCMVmTRHR-infected KB cells, 60 minutes 1 μM TRH", "result": "0±10", "unit": "%"}]}, {"smiles": "Cn1cnc(C[C@H](NC(=O)[C@@H]2CCC(=O)N2)C(=O)N2CCC[C@H]2C(N)=O)c1", "note": "[methylTRH]", "values": [{"measurement": "Kd", "setting": "[2]", "result": "1.09 ± 0.26", "unit": "nM"}, {"measurement": "TRH-Rs internalized after 60 minutes", "setting": "[3]; AdCMVmTRHR-infected COS-1 cells (printed COA-1)", "result": "62±2.1", "unit": "%"}, {"measurement": "TRH-Rs internalized after 60 minutes", "setting": "[3]; AdCMVmTRHR-infected GHY cells", "result": "64±7.0", "unit": "%"}, {"measurement": "TRH-Rs internalized after 60 minutes", "setting": "[3]; AdCMVmTRHR-infected KB cells", "result": "71±2.6", "unit": "%"}, {"measurement": "response to methylTRH (IP formation) in uninfected cells", "setting": "[4]", "result": "did not respond"}]}]}
